Assay results taken from ChEMBL document CHEMBL5608215, “Development of amphipathic derivatives of thymol and carvacrol as potent broad-spectrum antibacterial agents” (Eur J Med Chem, 2024).
Activity calls are given as the source filed them. The calls are words filed in the database; no cut-off is given here.

Assays:
[1] = Toxicity in KM mouse assessed as histopathological abnormality in heart upto 40 mg/kg, ip measured for 24 hrs by H and E staining based analysis; format: organism-based; conditions: in vivo
Enterococcus = experiment: Antibacterial activity against vancomycin-resistant Enterococcus ATCC51299 by CLSI based serial dilution method; format: functional
Escherichia coli [2] = experiment: Antibacterial activity against Escherichia coli ATCC25922 by CLSI based serial dilution method; format: functional
Staphylococcus aureus [3] = experiment: Inhibition of antibiotic-resistance in Staphylococcus aureus ATCC29213 at 0.5 times of MIC incubated for 20 days; format: functional; conditions: time 20.0 day
Staphylococcus aureus [4] = experiment: Bactericidal activity against Staphylococcus aureus ATCC29213 assessed as log reduction in bacterial growth at 8 times MIC incubated for 24 hrs by time-kill assay; format: functional
Enterococcus faecalis = experiment: Antibacterial activity against Enterococcus faecalis ATCC29212 assessed as cell surface wrinkling at 8 times MIC by SEM analysis; format: functional, organism-based
Staphylococcus aureus [5] = experiment: Antibacterial activity against Staphylococcus aureus ATCC25923 upto 32 ug/ml incubated for 16 to 18 hrs in presence of phosphatidylethanolamine; format: functional, organism-based; conditions: dose <= 32.0 µg/ml, time 16-18 hrs
Staphylococcus aureus [6] = experiment: Antibacterial activity against Staphylococcus aureus ATCC25923 upto 32 ug/ml incubated for 16 to 18 hrs in presence of peptidoglycan; format: functional, organism-based; conditions: dose <= 32.0 µg/ml, time 16-18 hrs
[7] = Selectivity index, ratio of HC50 against rabbit RBC for to MIC for Escherichia coli ATCC25922; format: toxicity; conditions: rabbit red blood cells, pooled result: one value given for 6 cell lines, strains, targets or settings, read-out: Selectivity Index
Escherichia coli [8] = experiment: Antibacterial activity against Escherichia coli ATCC25922 in plasma pretreated plasma with compound for 6 hrs followed by bacterial infection into plasma; format: functional, organism-based
[9] = Toxicity in KM mouse assessed as animal survival upto 40 mg/kg, ip measured for 24 hrs; format: organism-based; conditions: in vivo
[10] = Toxicity in KM mouse assessed as histopathological abnormality in lung upto 40 mg/kg, ip measured for 24 hrs by H and E staining based analysis; format: organism-based; conditions: in vivo
[11] = Toxicity in KM mouse assessed as damage in heart upto 40 mg/kg, ip measured for 24 hrs by H and E staining based analysis; format: organism-based; conditions: in vivo
[12] = Toxicity in KM mouse assessed as damage in spleen upto 40 mg/kg, ip measured for 24 hrs by H and E staining based analysis; format: organism-based; conditions: in vivo
Staphylococcus aureus [13] = experiment: Antibacterial activity against Staphylococcus aureus ATCC29213 infected in mouse model assessed as bacterial load reduction in abscesses at 5 mg/kg, sc measured after 24 hrs relative to control; format: functional; design: scale not given: the % may be the effect or the level left

In the case of `CCCCCCCNC(=O)C[N+](C)(C)CCCCOc1cc(C)ccc1C(C)C.[Br-]`, the Activity [1] is reported as “Non-Toxic”, the MIC (Enterococcus) is reported as 2 µg/mL and the MIC (Escherichia coli [2]) is reported as 2 µg/mL. For the same compound, the inhibition (Staphylococcus aureus [3]) was “Active”, the Activity (Staphylococcus aureus [4]) was greater than 3 log10CFU/ml and the Activity (Enterococcus faecalis) was “Active”. For the same compound, the Activity (Staphylococcus aureus [5]) was “inactive”, the Activity (Staphylococcus aureus [6]) was “Active” and the selectivity ratio [7] was 59. For the same compound, the Activity (Escherichia coli [8]) was “Active”, the Activity [9] was “Non-Toxic” and the Activity [10] was “Non-Toxic”. The Activity [11] was “Non-Toxic”, the Activity [12] was “Non-Toxic” and the Activity (Staphylococcus aureus [13]) was 99.27%.
